{"source": "the supplement of paper PMC11208160"}
{"assay": "recombinant UMI read abundance after kanamycin selection (control-corrected) (log10(CPM+1)); higher = more efficient recombination; extreme values may be limits of the assay; sequences stand for … in AGTGCAGAGAAAATCGGCCAGTTTTCTCTGCCTGCAGTCCGCATGCCGTGGGACCCCTTGGGTTCTAACCTGTTGCCTAGATTTATGCAGCGGACTGCCTTTCTCCCAAAGTGATAAACCGG…AGGTTGGTTTCACT; site = the 11-nt donor", "summary_of_the_method": "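In Escherichia coli, a pool of donor and donor-binding-loop pairs, each with a 12-nt UMI, was tested for the IS621 bridge recombinase. Plating was on IPTG (0.07 mM) plus kanamycin, or without selection, in two replicates. Recombinant UMIs were amplified by PCR across the donor–target junction and sequenced, and counts were reported as log10(CPM+1) after averaging and control-derived scaling.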"}
{"sequence": "CCGTTTACATGGACCGGTTTTCCCGGTAATCCGTATTTGCT (site CCCTTTACTAG)", "recombinant UMI read abundance (log10)": 0}
{"sequence": "GCAGTGTCATGGACCGGTTTTCCCGGTAATCCGTATTTGAT (site GCAGTGTCTAT)", "recombinant UMI read abundance (log10)": 2.82}
{"sequence": "AGGTTCCCATGGACCGGTTTTCCCGGTAATCCGTATTTGTG (site AGGTTCACTCA)", "recombinant UMI read abundance (log10)": 0.0115}
{"sequence": "CGGAGATCATGGACCGGTTTTCCCGGTAATCCGTATTTGCT (site CGGAGATCTAG)", "recombinant UMI read abundance (log10)": 3.03}
{"sequence": "CGCTCCTCATGGACCGGTTTTCCCGGTAATCCGTATTTGTG (site CGCTCCTCTCA)", "recombinant UMI read abundance (log10)": 0.976}
{"sequence": "GCGAAAACATGGACCGGTTTTCCCGGTAATCCGTATTTGAT (site GCGAAAACTAT)", "recombinant UMI read abundance (log10)": 1.66}
{"sequence": "TGCTACGCATGGACCGGTTTTCCCGGTAATCCGTATTTGGT (site TGCTACGCTAC)", "recombinant UMI read abundance (log10)": 0.202}
{"sequence": "GACAAACCATGGACCGGTTTTCCCGGTAATCCGTATTTGGC (site GACAAACCTCC)", "recombinant UMI read abundance (log10)": 0}
{"sequence": "GAGGAATCATGGACCGGTTTTCCCGGTAATCCGTATTTGCG (site TAGGAATCTCG)", "recombinant UMI read abundance (log10)": 2.25}
{"sequence": "CTATCCTCATGGACCGGTTTTCCCGGTAATCCGTATTTGCT (site CTATCCTCTAG)", "recombinant UMI read abundance (log10)": 3.09}
{"sequence": "ATTAGTGCATGGACCGGTTTTCCCGGTAATCCGTATTTGGT (site ATTAGTGCTAC)", "recombinant UMI read abundance (log10)": 1.05}
{"sequence": "CCCTCAACATGGACCGGTTTTCCCGGTAATCCGTATTTGCA (site CCCTCAACTTG)", "recombinant UMI read abundance (log10)": 0.377}
{"sequence": "CCCTTTTCATGGACCGGTTTTCCCGGTAATCCGTATTTGGG (site CCCTTGTCTCC)", "recombinant UMI read abundance (log10)": 0.0108}
{"sequence": "CAAGTCACATGGACCGGTTTTCCCGGTAATCCGTATTTGGG (site CAAGTAACTCC)", "recombinant UMI read abundance (log10)": 0.0617}
{"sequence": "TTAGTATCATGGACCGGTTTTCCCGGTAATCCGTATTTGAC (site GTAGTATCTGT)", "recombinant UMI read abundance (log10)": 0.348}
{"sequence": "TGCTAGCCATGGACCGGTTTTCCCGGTAATCCGTATTTGGT (site TGCTAGGCTAC)", "recombinant UMI read abundance (log10)": 0.0165}
{"sequence": "GAAGATTCATGGACCGGTTTTCCCGGTAATCCGTATTTGTT (site GAAGATTCTAC)", "recombinant UMI read abundance (log10)": 0.242}
{"sequence": "CTGGACACATGGACCGGTTTTCCCGGTAATCCGTATTTGCA (site CTGGAAACTTG)", "recombinant UMI read abundance (log10)": 0.462}
{"sequence": "GTGGTTCCATGGACCGGTTTTCCCGGTAATCCGTATTTGGT (site GTCGTTCCTAC)", "recombinant UMI read abundance (log10)": 0}
{"sequence": "ACAGCATCATGGACCGGTTTTCCCGGTAATCCGTATTTGCG (site ACAGTATCTTG)", "recombinant UMI read abundance (log10)": 0}
{"sequence": "GATAAAGCATGGACCGGTTTTCCCGGTAATCCGTATTTGGG (site GATAAAGCTCC)", "recombinant UMI read abundance (log10)": 0.172}
{"sequence": "GCCTGCCCATGGACCGGTTTTCCCGGTAATCCGTATTTGAT (site GCTTGCCCTAT)", "recombinant UMI read abundance (log10)": 0.00989}
{"sequence": "GTATGGCCATGGACCGGTTTTCCCGGTAATCCGTATTTGCA (site GGATGGCCTTG)", "recombinant UMI read abundance (log10)": 0}
{"sequence": "TCATAGACATGGACCGGTTTTCCCGGTAATCCGTATTTGCG (site TCAAAGACTCG)", "recombinant UMI read abundance (log10)": 0.629}
{"sequence": "CTGCTACCATGGACCGGTTTTCCCGGTAATCCGTATTTGCG (site CTGCTACCTTG)", "recombinant UMI read abundance (log10)": 0}
{"sequence": "GATTATCCATGGACCGGTTTTCCCGGTAATCCGTATTTGCT (site GATTATCCTAC)", "recombinant UMI read abundance (log10)": 0.0217}
{"sequence": "CGAGTATCATGGACCGGTTTTCCCGGTAATCCGTATTTGCT (site CGAGTATCTAG)", "recombinant UMI read abundance (log10)": 2.71}
{"sequence": "CACTCCTCATGGACCGGTTTTCCCGGTAATCCGTATTTGAC (site CACTCCTCTGA)", "recombinant UMI read abundance (log10)": 2.16}
{"sequence": "GCATAGACATGGACCGGTTTTCCCGGTAATCCGTATTTGCC (site GAATAGACTGG)", "recombinant UMI read abundance (log10)": 0.0508}
{"sequence": "CGATCATCATGGACCGGTTTTCCCGGTAATCCGTATTTGCG (site CGATCATCTGG)", "recombinant UMI read abundance (log10)": 0}
{"sequence": "GACTTGGCATGGACCGGTTTTCCCGGTAATCCGTATTTGGA (site CACTTGGCTTC)", "recombinant UMI read abundance (log10)": 0.579}
{"sequence": "CTGCCGGCATGGACCGGTTTTCCCGGTAATCCGTATTTGCA (site CTGCCGGCTTG)", "recombinant UMI read abundance (log10)": 2.01}
{"sequence": "CGCCATGCATGGACCGGTTTTCCCGGTAATCCGTATTTGAC (site CGCCATGCTGT)", "recombinant UMI read abundance (log10)": 1.6}
{"sequence": "CTCAGCTCATGGACCGGTTTTCCCGGTAATCCGTATTTGAA (site CTCAGCTCTTT)", "recombinant UMI read abundance (log10)": 2.08}
{"sequence": "AAATGAGCATGGACCGGTTTTCCCGGTAATCCGTATTTGGG (site TAATGAGCTCC)", "recombinant UMI read abundance (log10)": 0.46}
{"sequence": "CTGGACACATGGACCGGTTTTCCCGGTAATCCGTATTTGCA (site CTGGACACTTG)", "recombinant UMI read abundance (log10)": 2.59}
{"sequence": "AAGTGCACATGGACCGGTTTTCCCGGTAATCCGTATTTGGT (site AAGTGCACTAC)", "recombinant UMI read abundance (log10)": 0.762}
{"sequence": "CAATTCCCATGGACCGGTTTTCCCGGTAATCCGTATTTGCC (site CAATTCCCTCG)", "recombinant UMI read abundance (log10)": 0.0185}
{"sequence": "CAATTCACATGGACCGGTTTTCCCGGTAATCCGTATTTGCT (site CAATTCCCTAG)", "recombinant UMI read abundance (log10)": 0}
{"sequence": "TACCTAGCATGGACCGGTTTTCCCGGTAATCCGTATTTGAA (site TAACTAGCTTT)", "recombinant UMI read abundance (log10)": 0}
{"sequence": "CACATGGCATGGACCGGTTTTCCCGGTAATCCGTATTTGCC (site CACATGGCTGG)", "recombinant UMI read abundance (log10)": 0}
{"sequence": "CCCTTCTCATGGACCGGTTTTCCCGGTAATCCGTATTTGGG (site CCCTTTTCTCC)", "recombinant UMI read abundance (log10)": 0.00608}
{"sequence": "CGAGCACCATGGACCGGTTTTCCCGGTAATCCGTATTTGGG (site CGAGGACCTCC)", "recombinant UMI read abundance (log10)": 0.0108}
{"sequence": "AGGACTACATGGACCGGTTTTCCCGGTAATCCGTATTTGAC (site AGCACTACTGT)", "recombinant UMI read abundance (log10)": 0.0103}
{"sequence": "ATCCAATCATGGACCGGTTTTCCCGGTAATCCGTATTTGAG (site ATCCAAACTCT)", "recombinant UMI read abundance (log10)": 0.00423}
{"sequence": "TTGGGGCCATGGACCGGTTTTCCCGGTAATCCGTATTTGAA (site TTGGGGCCTTT)", "recombinant UMI read abundance (log10)": 0.00375}
{"sequence": "GAGCTCACATGGACCGGTTTTCCCGGTAATCCGTATTTGAA (site GAGCTCACTAT)", "recombinant UMI read abundance (log10)": 0.839}
{"sequence": "CAGTCGACATGGACCGGTTTTCCCGGTAATCCGTATTTGGT (site CAGTCGACTGC)", "recombinant UMI read abundance (log10)": 1.41}
{"sequence": "CCGAGTTCATGGACCGGTTTTCCCGGTAATCCGTATTTGTT (site CCGAGTTCTAA)", "recombinant UMI read abundance (log10)": 0.501}
{"sequence": "ACACGAACATGGACCGGTTTTCCCGGTAATCCGTATTTGTC (site ACACGAACTGA)", "recombinant UMI read abundance (log10)": 2.77}
{"sequence": "ATAGTCGCATGGACCGGTTTTCCCGGTAATCCGTATTTGCG (site CTAGTCGCTCG)", "recombinant UMI read abundance (log10)": 0.303}
{"sequence": "TAGGTAGCATGGACCGGTTTTCCCGGTAATCCGTATTTGAA (site TAGGTAGCTTT)", "recombinant UMI read abundance (log10)": 1.67}
{"sequence": "GATTATCCATGGACCGGTTTTCCCGGTAATCCGTATTTGCT (site GATGATCCTAG)", "recombinant UMI read abundance (log10)": 0}
{"sequence": "CGTCAGACATGGACCGGTTTTCCCGGTAATCCGTATTTGAG (site CGTAAGACTCT)", "recombinant UMI read abundance (log10)": 0.182}
{"sequence": "ACGCGTACATGGACCGGTTTTCCCGGTAATCCGTATTTGGA (site ACGCGTACTTC)", "recombinant UMI read abundance (log10)": 1.12}
{"sequence": "GAGCTCTCATGGACCGGTTTTCCCGGTAATCCGTATTTGAT (site GAGCTCGCTAT)", "recombinant UMI read abundance (log10)": 0.0051}
{"sequence": "TGAATAACATGGACCGGTTTTCCCGGTAATCCGTATTTGCA (site TGAATAACTTG)", "recombinant UMI read abundance (log10)": 1.38}
{"sequence": "GCCCCGTCATGGACCGGTTTTCCCGGTAATCCGTATTTGAT (site GCCCCGTCTAT)", "recombinant UMI read abundance (log10)": 2}
{"sequence": "GGTAATCCATGGACCGGTTTTCCCGGTAATCCGTATTTGAA (site GGAAATCCTTT)", "recombinant UMI read abundance (log10)": 0.00275}
{"sequence": "CTGGAACCATGGACCGGTTTTCCCGGTAATCCGTATTTGAT (site CCGGAACCTAT)", "recombinant UMI read abundance (log10)": 0}
{"sequence": "AGCTATGCATGGACCGGTTTTCCCGGTAATCCGTATTTGAT (site AGCTATGCTAT)", "recombinant UMI read abundance (log10)": 1.79}
{"sequence": "CAAGTTACATGGACCGGTTTTCCCGGTAATCCGTATTTGGG (site CAAGTGACTCC)", "recombinant UMI read abundance (log10)": 0.0286}
{"sequence": "AGGACTACATGGACCGGTTTTCCCGGTAATCCGTATTTGAC (site AGGACTACTGA)", "recombinant UMI read abundance (log10)": 0}
{"sequence": "GGTACGACATGGACCGGTTTTCCCGGTAATCCGTATTTGTT (site GGTACGTCTAA)", "recombinant UMI read abundance (log10)": 0.0179}
{"sequence": "TTATCATCATGGACCGGTTTTCCCGGTAATCCGTATTTGCA (site TTATCATCTTG)", "recombinant UMI read abundance (log10)": 1.53}
{"sequence": "CCCTAGCCATGGACCGGTTTTCCCGGTAATCCGTATTTGCC (site CCCTAGCCTGG)", "recombinant UMI read abundance (log10)": 0}
{"sequence": "TCCATAACATGGACCGGTTTTCCCGGTAATCCGTATTTGGG (site TCCATAACTCC)", "recombinant UMI read abundance (log10)": 0.008}
{"sequence": "CTAAGGCCATGGACCGGTTTTCCCGGTAATCCGTATTTGAC (site TTAAGGCCTGT)", "recombinant UMI read abundance (log10)": 0}
{"sequence": "CCCTAGCCATGGACCGGTTTTCCCGGTAATCCGTATTTGCC (site CCCTAGGCTGG)", "recombinant UMI read abundance (log10)": 0}
{"sequence": "TAACCTTCATGGACCGGTTTTCCCGGTAATCCGTATTTGGT (site TATCCTTCTAC)", "recombinant UMI read abundance (log10)": 0}
{"sequence": "CGGGAACCATGGACCGGTTTTCCCGGTAATCCGTATTTGAA (site CGGGAACCTCT)", "recombinant UMI read abundance (log10)": 0.00576}
{"sequence": "CGGAAGCCATGGACCGGTTTTCCCGGTAATCCGTATTTGTT (site CGGAAACCTAA)", "recombinant UMI read abundance (log10)": 0}
{"sequence": "TTTAGAACATGGACCGGTTTTCCCGGTAATCCGTATTTGGC (site GTTAGAACTGC)", "recombinant UMI read abundance (log10)": 0}
{"sequence": "AGATGGGCATGGACCGGTTTTCCCGGTAATCCGTATTTGAG (site AGATGGGCTCT)", "recombinant UMI read abundance (log10)": 1.06}
{"sequence": "GTTCCAACATGGACCGGTTTTCCCGGTAATCCGTATTTGTA (site GATCCAACTTA)", "recombinant UMI read abundance (log10)": 0.0199}
